Where two headings read alike, the source gives them in different places.
Assay: in vitro
Assay type: cell-based, mouse
Conditions: mouse
Text: For selected compounds, 6a–6f, we performed a determination of the cytotoxicity in a wider variety of cancer and non-cancerous cell lines (see Table S2, Supplementary Materials) in order to learn the characteristic features of selectivity or the similarity of biological properties.
The HT-1080 (human connective tissue fibrosarcoma, ATCC® CCL-121™), MH-22A (mouse hepatocarcinoma, ECACC Cat. No. 96121721), A-549 (human lung carcinoma, ATCC® CCL-185™), NIH3T3 (Swiss Albino mouse embryo fibroblast, ECACC Cat. No. 93061524), Hek293 (human embryonic kidney, ATCC® CRL-1573™), BHK-21 (Syrian hamster kidney, ATCC® CCL-10™), A-431 (human epidermoid carcinoma, ATCC® CRL-1555™), Saos-2 (human osteosarcoma, ATCC® HTB-85™), HeLa (human epitheloid cervix carcinoma, ATCC® CCL-2™), U937 (human myeloid leukaemia, ATCC® CRL-1593.2™), C6 (rat glioma, ATCC® CCL-107™), and B16-F10 (murine melanoma, ATCC® CRL-6475™) cell lines were obtained from the American Type Culture Collection (ATCC) and European Collection of Authenticated Cell Cultures (ECACC).
HT-1080, MH-22A, A-549, NIH3T3, BHK-21, A-431, HeLa, and B16-F10 cells were cultured in Dulbecco’s Modified Eagle’s Medium (DMEM) with 2 mM glutamine and 10% foetal bovine serum (FBS). Hek293 cells were cultured in Eagle’s Minimum Essential Medium with 10% foetal bovine serum. U937 cells were cultured in RPMI-1640 Medium with 2 mM glutamine and 10% foetal bovine serum. C6 cells were cultured in Ham’s F12 Medium with 2 mM glutamine and 10% foetal bovine serum. Saos-2 cells were cultured in McCoy’s 5a Medium with 2 mM glutamine and 10% foetal bovine serum. The cells were incubated at 37 °C with 5% CO2, 95% air, and complete humidity. Once ~90% confluence was reached, they were detached using 0.05% trypsin/EDTA and counted. The cells were plated at optimally determined densities for the logarithmic phase of growth. These cells were then suspended at a concentration of 4000 cells/well for HT-1080, MH-22A, A-549, NIH3T3, BHK-21, A-431, HeLa, B16-F10, Hek293, and Saos-2 cells and a concentration of 9000 cells/well for U937, C6, Hek293, and GM08402 cells and added onto a 96-well plate. For background absorption, some wells remained cell free, i.e., as a blank control. Cells were incubated for 72 h at 37 °C and 5% CO2 where they were exposed to a media containing serial dilutions of the investigated compounds (n = 3). Cell viability was measured using the 3-(4,5-dimethylthiazol-2-yl)-2,5-diphenyl-tetrazolium bromide (MTT) assay. In brief, after incubating with compounds, the culture medium was removed and fresh medium with 0.2 mg/mL MTT was added to each well of the plate. After incubation (3 h, 37 °C, 5% CO2), the medium with MTT solution was removed and replaced with 200 µL DMSO and 25 µL Sorenson’s glycine buffer (glycine 0.1 M, NaCl 0.1 M, pH: 10.5 with 0.1 M NaOH). The plate was shaken for 15 min at room temperature and the optical density (OD) of the wells was determined using a multichannel spectrophotometer (Thermo Scientific Multiskan EX) at 540 nm. The quantity of the control cells was taken in calculations as 100%. The IC50 value was calculated using the program Graph Pad Prism® 3.0.
The HT-1080 (human connective tissue fibrosarcoma, ATCC® CCL-121™), MH-22A (mouse hepatocarcinoma, ECACC Cat.No. 96121721), A-549 (human lung carcinoma, ATCC® CCL-185™), NIH 3T3 (mouse Swiss Albino embryo fibroblast, ECACC Cat.No. 93061524), Hek293 (human embryonic kidney, ATCC® CRL-1573™), BHK-21 (hamster Syrian kidney, ATCC® CCL-10™), A-431 (human epidermoid carcinoma, ATCC® CRL-1555™), Saos-2 (human oste osarcoma, ATCC® HTB-85™) HeLa (human epitheloid cervix carcinoma, ATCC® CCL-2™), U937 (human myeloid leukaemia, ATCC® CRL-1593.2™), C6 (rat glioma, ATCC® CCL-107™), B16-F10 (murine melanoma, ATCC® CRL-6475™) cell lines were obtained from American Type Culture Collection (ATCC) and European Collection of Authenticated Cell Cultures […]
Table S2. […]

[1] = non-cancerous cell line, MTT, 72 h, read-out: Cytotoxicity IC50 NIH3T3

| SMILES | IC50 at 72 h [1] [µg/mL] | IC50 at 72 h [µg/mL] |
| --- | --- | --- |
| CCCCCCCCCCCCCCCC[n+]1ccc(C=CC=Cc2cc3c4c(c2)CCCN4CCC3)cc1.[Br-] [Compound 6e, 1-hexadecyl-4-(4-(2,3,6,7-tetrahydro-1H,5H-pyrido[3,2,1-ij]quinolin-9-yl)buta-1,3-dien-1-yl)pyridin-1-ium bromide] | 3.2 |  |
| CCCCCCCCCCCCCCCC[n+]1ccc(C=CC=Cc2ccc(OC)cc2)cc1.[Br-] [Compound 6c, 1-hexadecyl-4-(4-(4-methoxyphenyl)buta-1,3-dien-1-yl)pyridin-1-ium bromide] |  | 0.24 |
| CCCCCCCCCCCC[n+]1ccc(C=Cc2cc3c4c(c2)CCCN4CCC3)cc1.[Br-] [Compound 6d, 1-dodecyl-4-(2-(2,3,6,7-tetrahydro-1H,5H-pyrido[3,2,1-ij]quinolin-9-yl)vinyl)pyridin-1-ium bromide] | 0.056 |  |
| CCCCCCCCCCCC[n+]1ccc(C=Cc2cc(OC)c(OC)c(OC)c2)cc1.[Br-] [Compound 6a, 4-(3,4,5-trimethoxystyryl)-N-dodecylpyridinium bromide] | 1.23 |  |

Reference: PMC10535741, “Styrylpyridinium Derivatives for Fluorescent Cell Imaging” (Pharmaceuticals, 2023)
